Data reported in ChEMBL document CHEMBL2021859, “Practical access to four stereoisomers of naftidrofuryl and their binding affinity towards 5-hydroxytryptamine 2A receptor” (Bioorg Med Chem Lett, 2012).
Counter-ions that a name gives are not always drawn.

Biological target: 5-hydroxytryptamine receptor 2A (Homo sapiens, UniProt P28223)
Assay: Displacement of [3H]ketanserin from 5HT2A receptor expressed in HEK293 cells by liquid scintillation spectrophotometry
Assay type: cell-based

Sequence of 5-hydroxytryptamine receptor 2A (P28223 whole entry): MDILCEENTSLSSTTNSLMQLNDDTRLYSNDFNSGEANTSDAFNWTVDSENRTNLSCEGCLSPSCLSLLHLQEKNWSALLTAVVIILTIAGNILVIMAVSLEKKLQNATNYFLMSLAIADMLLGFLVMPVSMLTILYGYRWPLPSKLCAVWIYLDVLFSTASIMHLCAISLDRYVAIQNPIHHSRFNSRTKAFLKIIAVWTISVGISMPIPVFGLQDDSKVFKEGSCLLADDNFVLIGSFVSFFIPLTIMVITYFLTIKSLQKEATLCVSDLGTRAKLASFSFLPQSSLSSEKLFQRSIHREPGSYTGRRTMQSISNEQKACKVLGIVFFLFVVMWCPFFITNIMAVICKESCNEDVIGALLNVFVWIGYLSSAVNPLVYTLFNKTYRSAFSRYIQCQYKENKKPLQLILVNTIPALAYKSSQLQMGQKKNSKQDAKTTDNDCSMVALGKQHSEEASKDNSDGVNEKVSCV

| Compound | Ki (read-out: Ki) [nM] | Ki (read-out: pKi (converted)) [nM] |
| --- | --- | --- |
| CCN(CC)CCOC(=O)[C@@H](Cc1cccc2ccccc12)C[C@@H]1CCCO1 | 153 | 282 |
| CCN(CC)CCOC(=O)[C@H](Cc1cccc2ccccc12)C[C@H]1CCCO1 | 2070 | 2290 |
| CCN(CC)CCOC(=O)[C@@H](Cc1cccc2ccccc12)C[C@H]1CCCO1 | 150 | 145 |

Next, values leading:

| Ki (read-out: Ki) [nM] | Ki (read-out: pKi (converted)) [nM] | Compound |
| --- | --- | --- |
| 256 | 331 | CCN(CC)CCOC(=O)C(Cc1cccc2ccccc12)CC1CCCO1 (stereo not given) [NAFRONYL OXALATE] |
| 972 | 1700 | CCN(CC)CCOC(=O)[C@H](Cc1cccc2ccccc12)C[C@@H]1CCCO1 |
